Test results: patent publication US20230000842A1, “METHODS OF TREATING CARTILAGE DISORDERS THROUGH INHIBITION OF CLK AND DYRK” (SAMUMED, LLC, priority 2019, published 2023)

Experiments:
[1] = system: primary human mesenchymal stem cells (hMSCs); assay: Chondrogenesis screening using primary human mesenchymal stem cells; format: cell-based; settings: Homo sapiens, Mesenchymal stem cells, hMSC chondrogenesis; for Emax: maximum activity relative to TGF-β3 (10 ng/mL) positive control, read-out: Max. Activity as % TGF-β3 activity; for EC50: concentration required to induce 50% levels of chondrogenesis with TGF-β3 as positive control, read-out: Conc (nM) of 50% TGF-β3 activity
Method in brief: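 Primary hMSCs at passage 3–6 were treated across compound concentrations, with TGF-β3 as positive control. Chondrogenic nodule area per well was normalized to 3 DMSO wells on the same plate (fold over DMSO, 2–3 replicates). EC50, maximum activity and the dose reaching it were derived.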

CLK2 kinase = CLK2 kinase (Homo sapiens, UniProt P49760); assay: CLK2 kinase activity assay (Z-lyte FRET); format: biochemical; settings: Z-lyte Ser/Thr 6 peptide, 60 μM ATP, 1 h at room temperature;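 further: FRET read-out as coumarin to fluorescein emission ratio, unphosphorylated peptide as 0% and phosphorylated peptide as 100% controls, duplicate reactions, non-linear regression fit of dose-response curves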
[2] = system: Wnt pathway activity (SW480 colon carcinoma cells stably expressing the Sp5-Luc reporter); assay: Wnt pathway activity screening assay (Sp5-Luc reporter gene assay); settings: Homo sapiens, SW480, Table 4; SW480 cells stably expressing Sp5-Luc reporter, 10-point dose-response from 10 μM, 36 to 48 hours
Method: The screening assay for Wnt pathway activity is described as follows.
SW480 colon carcinoma cells were transduced with a lentiviral vector expressing luciferase with a human Sp5 promoter consisting of a sequence of eight TCF/LEF binding sites. […] These stably transduced SW480 cells were expanded in cell culture and used for all further screening activities. Each compound was dissolved in DMSO as a 10 mM stock and used to prepare compound source plates. Serial dilution (1:3, 10-point dose-response curves starting from 10 μM) and compound transfer was performed using the ECHO 550 (Labcyte, Sunnyvale, Calif.) into 384-well white solid bottom assay plates (Greiner Bio-One) with appropriate DMSO backfill for a final DMSO concentration of 0.1%. […] Following incubation, 15 μl of BriteLite Plus luminescence reagent (Perkin Elmer) was added to each well of the 384-well assay plates. The plates were placed on an orbital shaker for 2 min and then luminescence was quantified using the Envision (Perkin Elmer) plate reader.

CLK3 kinase = CLK3 kinase (Homo sapiens, UniProt P49761); assay: CLK3 kinase activity assay (Z-lyte FRET); format: biochemical; settings: Z-lyte Ser/Thr 18 peptide, 156 μM ATP, 1 h at room temperature;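 further: kinase activity read as coumarin/fluorescein emission ratio by FRET, unphosphorylated peptide as 0% and phosphorylated peptide as 100% control, values from non-linear regression of dose-response curves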
[3] = system: MMP-3 levels in supernatant of chondrocytes stimulated with IL1-β; assay: Chondrocyte protection assay compound screening (MMP-3 LANCE Ultra); format: cell-based, human; settings: Homo sapiens, Chondrocyte, IL1-β 10 ng/mL overnight, 11-point curves from 3 μM to 0.05 nM; for Emax: read-out: Maximum % Inhibition
Method in brief: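 Primary human chondrocytes (passage 2–5) in differentiation medium were stimulated with 10 ng/mL IL1-β for an overnight incubation at 37 °C. MMP-3 in 1:7-diluted supernatant was read by TR-FRET immunoassay against a standard curve, normalised to IL1-β-stimulated wells; EC50 and maximum % inhibition came from nonlinear regression.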

CLK2 kinase, sequence (P49760 whole entry): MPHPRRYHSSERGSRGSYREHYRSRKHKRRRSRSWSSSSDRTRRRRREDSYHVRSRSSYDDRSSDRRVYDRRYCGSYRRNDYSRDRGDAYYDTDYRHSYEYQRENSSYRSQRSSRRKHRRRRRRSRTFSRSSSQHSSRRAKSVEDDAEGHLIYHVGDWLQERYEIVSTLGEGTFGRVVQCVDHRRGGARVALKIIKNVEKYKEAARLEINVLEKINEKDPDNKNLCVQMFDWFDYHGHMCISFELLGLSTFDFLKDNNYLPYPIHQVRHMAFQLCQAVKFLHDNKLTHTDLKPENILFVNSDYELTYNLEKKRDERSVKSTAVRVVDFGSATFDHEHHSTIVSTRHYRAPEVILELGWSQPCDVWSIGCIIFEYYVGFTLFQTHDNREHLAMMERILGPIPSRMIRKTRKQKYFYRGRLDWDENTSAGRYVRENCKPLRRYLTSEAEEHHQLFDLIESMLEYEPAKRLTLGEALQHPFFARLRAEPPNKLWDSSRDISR
CLK3 kinase, sequence (P49761 whole entry): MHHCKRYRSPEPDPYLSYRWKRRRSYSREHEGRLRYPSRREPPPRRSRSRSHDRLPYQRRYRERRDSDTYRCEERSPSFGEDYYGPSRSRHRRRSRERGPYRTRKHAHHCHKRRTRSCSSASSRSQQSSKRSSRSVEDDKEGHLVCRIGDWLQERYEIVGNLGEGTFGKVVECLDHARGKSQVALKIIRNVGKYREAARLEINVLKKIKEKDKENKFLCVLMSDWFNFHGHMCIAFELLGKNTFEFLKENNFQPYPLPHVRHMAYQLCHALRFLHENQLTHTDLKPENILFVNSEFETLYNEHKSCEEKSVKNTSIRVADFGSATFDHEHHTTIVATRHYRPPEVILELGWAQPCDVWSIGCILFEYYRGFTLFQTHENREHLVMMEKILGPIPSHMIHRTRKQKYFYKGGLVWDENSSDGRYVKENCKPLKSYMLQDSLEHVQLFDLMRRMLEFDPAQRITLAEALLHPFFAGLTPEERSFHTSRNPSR

SMILES	EC50 (CLK2 kinase) [nM]	EC50 [2] [nM]	EC50 (CLK3 kinase) [nM]	EC50 [1] [nM]	Emax [1] [%]	EC50 [3] [nM]	Emax [3] [%]
CN(C)C(=O)Nc1cncc(-c2cnc3[nH]nc(-c4nc5c(-c6cccc(F)c6)cncc5[nH]4)c3c2)c1 [compound 130]	3	10	18	–	68.1	40.6	60.5
CCCC(=O)Nc1cncc(-c2ccc3[nH]nc(-c4nc5c(N6CCCCC6)cncc5[nH]4)c3c2)c1 [compound 208]	4	42	58	–	77.3	20.5	39
CN1CCN(c2nccc3[nH]c(-c4n[nH]c5cc(F)c(-c6cnn(C)c6)cc45)nc23)CC1 [compound 219]	1	85.7	26	30	113	35.5	87.3
Cc1cn(-c2cncc3[nH]c(-c4n[nH]c5ccc(-c6cncc(NC(=O)C(C)(C)C)c6)nc45)nc23)cn1 [compound 222]	3	> 10000	263	100	150	1150	64.9
CC(C)Nc1cncc(-c2ccc3[nH]nc(-c4nc5c(-c6cc(F)cc(NCCN(C)C)c6)cncc5[nH]4)c3n2)c1 [compound 284]	1	1660	25	300	96.8	≥ 3000	32.9
CCNCc1cncc(-c2cc3c(-c4cc5c(-c6cccnc6)cncc5[nH]4)n[nH]c3cn2)c1 [compound 367]	2	3730	214	10	67.6	≥ 3000	75.7
O=C(Nc1cncc(-c2cnc3[nH]nc(-c4cc5c(-c6ccncc6)cncc5[nH]4)c3c2)c1)C1CCC1 [compound 394]	3	> 10000	69	–	43.5	17.9	90.4
CN1CCN(c2cncc3[nH]c(-c4n[nH]c5ccc(-c6cncc(CNCc7ccccc7)c6)cc45)cc23)CC1 [compound 490]	3	3290	142	–	101	329	80.2
O=C(Nc1cc2cc(-c3cncc(NC4CCNC[C@@H]4F)n3)ccc2cn1)C1CC1 (stereo partly shown) [compound 603]	1	9.5	11	2700	68	≥ 3000	55.5
O=C1COc2cccc(c2)-c2cncc3[nH]c(nc23)-c2n[nH]c3ccc(cc23)-c2cncc(c2)N1 [compound 620]	3	86.8	16	100	185	37.4	37.1
CN1CCCn2cc(nn2)-c2nccc3[nH]c(nc23)-c2n[nH]c3ccc(cc23)-c2cncc(c2)C1 [compound 621]	3	338	26	10	181	≥ 3780	46.5
O=C1CCc2cccc(c2)-c2cncc(c2)NC(=O)c2n[nH]c3ccc(cc23)-c2cncc(c2)CN1 [compound 622]	5	> 10000	36	30	69.4	10	83.8

Continued, in another order:

EC50 (CLK2 kinase) [nM]	EC50 [2] [nM]	EC50 (CLK3 kinase) [nM]	EC50 [1] [nM]	SMILES	Emax [1] [%]	EC50 [3] [nM]	Emax [3] [%]
1	79	55	–	CN1CCC(n2cc(NC(=O)c3n[nH]c4ccc(-c5cnn(C)c5)cc34)cn2)CC1 [compound 106]	23.6	818	100
1	242	90	–	Cn1cc(-c2cc3c(C(=O)Nc4ccc(CN5CCCC5)cc4)n[nH]c3cc2F)cn1 [compound 107]	27.4	≥ 3000	22.9
4	4	24	30	CC(C)C(=O)Nc1cncc(-c2ccc3[nH]nc(-c4nc5c(-c6ccccc6F)cncc5[nH]4)c3c2)c1 [compound 173]	102	≥ 3000	90.2
8	12	26	100	CC(C)CC(=O)Nc1cncc(-c2ccc3[nH]nc(-c4nc5c(-c6cccnc6)cncc5[nH]4)c3c2)c1 [compound 189]	198	111	100
1	23	61	–	c1cncc(-c2ccc3[nH]nc(-c4nc5c(N6CCOCC6)cncc5[nH]4)c3c2)c1 [compound 220]	90.4	13.6	100
1	48	128	30	CN(C)Cc1cncc(-c2cnc3[nH]nc(-c4nc5c(-c6cccs6)cncc5[nH]4)c3c2)c1 [compound 260]	146	≥ 3000	–
1	45.5	20	10	Cc1ccc(-c2nccc3[nH]c(-c4n[nH]c5ccc(-c6cncc(N)c6)nc45)nc23)s1 [compound 275]	72.6	≥ 3000	58.4
1	> 10000	13	–	CC(C)CC(=O)Nc1cncc(-c2cc3c(-c4nc5c(-c6cc(F)cc(OCCN7CCCC7)c6)cncc5[nH]4)n[nH]c3cn2)c1 [compound 298]	20.3	≥ 3000	23.2
2	> 10000	48	–	O=C(CC1CCNCC1)Nc1cncc(-c2ccc3[nH]nc(-c4cc5c(N6CCCCC6)nccc5[nH]4)c3n2)c1 [compound 462]	21.8	1470	99.9
2	> 10000	51	–	CCNCc1cncc(-c2cnc3[nH]nc(-c4cc5c(-c6cc(F)cc(CNS(C)(=O)=O)c6)cncc5[nH]4)c3c2)c1 [compound 533]	42.8	≥ 3000	40.8
2	51.8	29	50	O=C1CCc2cccc(c2)-c2cncc3[nH]c(nc23)-c2n[nH]c3ccc(cc23)-c2cncc(c2)N1 [compound 619]	225	≥ 3000	71.5
2	284	10	30	CN1CCN(c2cc(Nc3ncc4c(-c5ccc6ncccc6c5)c[nH]c4n3)ccn2)CC1 [compound 623]	73.4	≥ 9980	89.5
